Test results taken from ChEMBL document CHEMBL4507283, “Data for DCP probe BI-1935” (2021).

What was measured:
[1] = molecular target: Ankyrin repeat and protein kinase domain-containing protein 1 (Homo sapiens) (UniProt Q8NFD2); conditions: Compound concentration 1000.0 nM
[2] = molecular target: Receptor-type tyrosine-protein kinase FLT3 (Homo sapiens) (UniProt P36888); conditions: Compound concentration 1000.0 nM
[3] = molecular target: Serotonin 2 (5-HT2) receptor (Rattus norvegicus) (UniProt P30994+P08909+P14842); assay: 5HT2/R Eurofins-Panlabs selectivity data (BI); assay type: protein assay; conditions: Compound concentration 10.0 uM
[4] = molecular target: Interstitial collagenase (Homo sapiens) (UniProt P03956); assay: PEP_MMP-1 Eurofins-Panlabs selectivity data (BI); conditions: Compound concentration 10.0 uM
[5] = molecular target: Serine/threonine-protein kinase Nek4 (Homo sapiens) (UniProt P51957); conditions: Compound concentration 1000.0 nM
[6] = molecular target: Dual specificity mitogen-activated protein kinase kinase 2 (Homo sapiens) (UniProt P36507); conditions: Compound concentration 1000.0 nM
[7] = system: Receptor-type tyrosine-protein kinase FLT3 (Homo sapiens), P36888 [D835Y]; conditions: Compound concentration 1000.0 nM
[8] = molecular target: Activin receptor type-2B (Homo sapiens) (UniProt Q13705); conditions: Compound concentration 1000.0 nM
[9] = molecular target: Serine/threonine-protein kinase MRCK beta (Homo sapiens) (UniProt Q9Y5S2); conditions: Compound concentration 1000.0 nM
[10] = molecular target: Tyrosine-protein kinase JAK1 (Homo sapiens) (UniProt P23458); conditions: Compound concentration 1000.0 nM
[11] = molecular target: Cyclin-dependent kinase-like 1 (Homo sapiens) (UniProt Q00532); conditions: Compound concentration 1000.0 nM
[12] = molecular target: Dual specificity mitogen-activated protein kinase kinase 3 (Homo sapiens) (UniProt P46734); conditions: Compound concentration 1000.0 nM
[13] = molecular target: Ephrin type-A receptor 3 (Homo sapiens) (UniProt P29320); conditions: Compound concentration 1000.0 nM
[14] = molecular target: Casein kinase II subunit alpha (Homo sapiens) (UniProt P68400); conditions: Compound concentration 1000.0 nM
[15] = molecular target: Bone morphogenetic protein receptor type-1B (Homo sapiens) (UniProt O00238); conditions: Compound concentration 1000.0 nM
[16] = system: Phosphatidylinositol 4,5-bisphosphate 3-kinase catalytic subunit alpha isoform (Homo sapiens), P42336 [C420R]; conditions: Compound concentration 1000.0 nM
Sequence of Phosphatidylinositol 4,5-bisphosphate 3-kinase catalytic subunit alpha isoform (Homo sapiens), P42336 [C420R] (P42336 whole entry C420R, canonical isoform): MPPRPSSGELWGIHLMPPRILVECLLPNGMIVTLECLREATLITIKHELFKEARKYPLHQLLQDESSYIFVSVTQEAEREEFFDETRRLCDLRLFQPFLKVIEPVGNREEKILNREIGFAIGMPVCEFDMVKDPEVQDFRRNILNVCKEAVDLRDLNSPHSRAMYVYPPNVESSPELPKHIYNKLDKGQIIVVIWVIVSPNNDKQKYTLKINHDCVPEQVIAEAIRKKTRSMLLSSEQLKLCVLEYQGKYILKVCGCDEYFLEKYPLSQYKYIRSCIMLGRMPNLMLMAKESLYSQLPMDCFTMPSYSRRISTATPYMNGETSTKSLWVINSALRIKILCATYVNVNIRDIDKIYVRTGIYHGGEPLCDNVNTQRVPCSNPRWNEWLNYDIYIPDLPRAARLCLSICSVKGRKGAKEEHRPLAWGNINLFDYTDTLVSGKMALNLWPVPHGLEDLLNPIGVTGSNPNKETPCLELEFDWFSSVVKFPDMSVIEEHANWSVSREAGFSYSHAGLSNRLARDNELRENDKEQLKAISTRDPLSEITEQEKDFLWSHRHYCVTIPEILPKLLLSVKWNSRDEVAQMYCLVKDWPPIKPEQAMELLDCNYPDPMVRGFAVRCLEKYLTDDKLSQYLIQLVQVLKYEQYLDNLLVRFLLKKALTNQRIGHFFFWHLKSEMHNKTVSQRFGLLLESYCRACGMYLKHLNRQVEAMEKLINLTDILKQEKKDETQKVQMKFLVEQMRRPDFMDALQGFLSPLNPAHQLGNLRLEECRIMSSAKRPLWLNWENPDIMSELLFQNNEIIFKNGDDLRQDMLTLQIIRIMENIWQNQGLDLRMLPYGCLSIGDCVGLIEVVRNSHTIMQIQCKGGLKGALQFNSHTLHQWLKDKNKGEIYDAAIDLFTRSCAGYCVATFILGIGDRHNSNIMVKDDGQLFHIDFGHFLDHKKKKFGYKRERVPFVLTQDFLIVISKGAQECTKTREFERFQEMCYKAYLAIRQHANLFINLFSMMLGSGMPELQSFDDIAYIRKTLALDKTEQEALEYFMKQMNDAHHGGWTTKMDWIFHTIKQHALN

[17] = molecular target: Ribosomal protein S6 kinase alpha-3 (Homo sapiens) (UniProt P51812); conditions: Compound concentration 1000.0 nM
Sequence of Ribosomal protein S6 kinase alpha-3 (Homo sapiens) (P51812 whole entry): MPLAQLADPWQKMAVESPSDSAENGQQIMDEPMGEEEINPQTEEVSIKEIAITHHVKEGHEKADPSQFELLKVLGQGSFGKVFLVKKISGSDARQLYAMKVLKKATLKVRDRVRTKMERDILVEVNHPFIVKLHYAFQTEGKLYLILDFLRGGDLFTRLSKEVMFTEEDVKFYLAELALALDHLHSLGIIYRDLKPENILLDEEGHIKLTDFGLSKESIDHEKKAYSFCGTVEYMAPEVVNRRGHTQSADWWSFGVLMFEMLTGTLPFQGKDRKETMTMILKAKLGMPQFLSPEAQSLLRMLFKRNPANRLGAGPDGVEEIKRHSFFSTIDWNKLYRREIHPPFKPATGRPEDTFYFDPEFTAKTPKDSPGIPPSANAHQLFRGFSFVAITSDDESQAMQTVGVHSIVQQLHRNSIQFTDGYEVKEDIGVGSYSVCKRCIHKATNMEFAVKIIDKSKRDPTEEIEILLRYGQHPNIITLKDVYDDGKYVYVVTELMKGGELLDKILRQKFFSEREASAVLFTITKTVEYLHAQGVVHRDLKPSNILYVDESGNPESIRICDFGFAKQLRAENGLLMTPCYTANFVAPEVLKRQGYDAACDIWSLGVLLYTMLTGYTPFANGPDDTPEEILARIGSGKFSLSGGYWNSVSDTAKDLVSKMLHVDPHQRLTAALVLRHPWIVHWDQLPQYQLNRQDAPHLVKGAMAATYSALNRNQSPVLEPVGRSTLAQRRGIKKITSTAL

[18] = molecular target: Sodium-dependent serotonin transporter (Homo sapiens) (UniProt P31645); assay: 5HTTRANS/HU Eurofins-Panlabs selectivity data (BI); conditions: Compound concentration 10.0 uM
[19] = molecular target: Mitogen-activated protein kinase kinase kinase 3 (Homo sapiens) (UniProt Q99759); conditions: Compound concentration 1000.0 nM
[20] = molecular target: Protein kinase C epsilon type (Homo sapiens) (UniProt Q02156); conditions: Compound concentration 1000.0 nM
[21] = molecular target: Phosphatidylinositol 4,5-bisphosphate 3-kinase catalytic subunit gamma isoform (Homo sapiens) (UniProt P48736); conditions: Compound concentration 1000.0 nM
[22] = molecular target: Ribosomal protein S6 kinase alpha-3 (Homo sapiens) (UniProt P51812); conditions: Compound concentration 1000.0 nM; remark: listed apart in the source
[23] = molecular target: Myosin light chain kinase 2, skeletal/cardiac muscle (Homo sapiens) (UniProt Q9H1R3); conditions: Compound concentration 1000.0 nM
[24] = molecular target: Mitogen-activated protein kinase kinase kinase 19 (Homo sapiens) (UniProt Q56UN5); conditions: Compound concentration 1000.0 nM
Sequence of Mitogen-activated protein kinase kinase kinase 19 (Homo sapiens) (Q56UN5 whole entry): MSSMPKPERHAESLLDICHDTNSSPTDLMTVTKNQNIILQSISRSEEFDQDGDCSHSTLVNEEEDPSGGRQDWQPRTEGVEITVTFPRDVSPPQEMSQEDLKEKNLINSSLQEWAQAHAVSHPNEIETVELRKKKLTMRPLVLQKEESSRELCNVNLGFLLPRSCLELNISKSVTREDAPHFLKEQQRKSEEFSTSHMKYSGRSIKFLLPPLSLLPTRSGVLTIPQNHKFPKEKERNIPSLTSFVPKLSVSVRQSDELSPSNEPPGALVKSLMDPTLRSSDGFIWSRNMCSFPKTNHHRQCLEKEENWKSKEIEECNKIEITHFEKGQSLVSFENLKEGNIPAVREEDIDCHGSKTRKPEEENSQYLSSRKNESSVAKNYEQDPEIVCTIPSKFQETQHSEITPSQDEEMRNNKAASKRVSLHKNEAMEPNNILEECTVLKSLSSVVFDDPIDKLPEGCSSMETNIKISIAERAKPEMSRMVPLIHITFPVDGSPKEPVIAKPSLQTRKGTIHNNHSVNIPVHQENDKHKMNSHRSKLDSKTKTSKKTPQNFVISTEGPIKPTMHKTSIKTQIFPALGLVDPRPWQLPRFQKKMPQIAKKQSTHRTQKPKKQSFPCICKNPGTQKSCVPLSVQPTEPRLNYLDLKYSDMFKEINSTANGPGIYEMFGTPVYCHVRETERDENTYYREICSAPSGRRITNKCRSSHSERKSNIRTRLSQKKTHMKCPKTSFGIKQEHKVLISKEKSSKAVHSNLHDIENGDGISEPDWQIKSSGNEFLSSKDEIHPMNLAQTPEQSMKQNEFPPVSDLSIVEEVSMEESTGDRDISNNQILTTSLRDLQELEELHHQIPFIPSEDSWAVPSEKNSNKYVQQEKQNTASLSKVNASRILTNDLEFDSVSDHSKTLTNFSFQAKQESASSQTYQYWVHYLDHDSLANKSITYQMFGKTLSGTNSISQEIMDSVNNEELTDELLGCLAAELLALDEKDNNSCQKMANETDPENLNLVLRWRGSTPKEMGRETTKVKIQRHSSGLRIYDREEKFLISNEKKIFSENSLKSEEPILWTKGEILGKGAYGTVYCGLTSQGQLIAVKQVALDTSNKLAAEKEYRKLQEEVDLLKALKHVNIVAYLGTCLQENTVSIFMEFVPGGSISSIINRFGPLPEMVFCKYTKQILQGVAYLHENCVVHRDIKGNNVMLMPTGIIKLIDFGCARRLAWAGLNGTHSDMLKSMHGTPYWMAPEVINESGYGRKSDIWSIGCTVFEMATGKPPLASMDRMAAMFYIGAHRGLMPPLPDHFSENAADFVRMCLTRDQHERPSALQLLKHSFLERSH

[25] = molecular target: Mitogen-activated protein kinase 13 (Homo sapiens) (UniProt O15264); conditions: Compound concentration 1000.0 nM
[26] = molecular target: Tyrosine-protein kinase ABL1 (Homo sapiens) (UniProt P00519); conditions: Compound concentration 1000.0 nM
[27] = molecular target: Dual specificity protein kinase CLK4 (Homo sapiens) (UniProt Q9HAZ1); conditions: Compound concentration 1000.0 nM
[28] = molecular target: MAP kinase-interacting serine/threonine-protein kinase 2 (Homo sapiens) (UniProt Q9HBH9); conditions: Compound concentration 1000.0 nM
[29] = molecular target: Serine/threonine-protein kinase N2 (Homo sapiens) (UniProt Q16513); conditions: Compound concentration 1000.0 nM
[30] = molecular target: Mitogen-activated protein kinase kinase kinase kinase 1 (Homo sapiens) (UniProt Q92918); conditions: Compound concentration 1000.0 nM
[31] = molecular target: Serine/threonine-protein kinase tousled-like 2 (Homo sapiens) (UniProt Q86UE8); conditions: Compound concentration 1000.0 nM
[32] = molecular target: Acetylcholine receptor subunit alpha (Homo sapiens) (UniProt P02708); assay: NACH/H Eurofins-Panlabs selectivity data (BI); conditions: Compound concentration 10.0 uM
[33] = molecular target: cAMP-dependent protein kinase catalytic subunit beta (Homo sapiens) (UniProt P22694); conditions: Compound concentration 1000.0 nM
[34] = molecular target: Proto-oncogene tyrosine-protein kinase Src (Homo sapiens) (UniProt P12931); conditions: Compound concentration 1000.0 nM
[35] = molecular target: Serine/threonine-protein kinase PRP4 homolog (Homo sapiens) (UniProt Q13523); conditions: Compound concentration 1000.0 nM
[36] = molecular target: Myosin-IIIb (Homo sapiens) (UniProt Q8WXR4); conditions: Compound concentration 1000.0 nM
[37] = molecular target: Calcium/calmodulin-dependent protein kinase type 1D (Homo sapiens) (UniProt Q8IU85); conditions: Compound concentration 1000.0 nM
[38] = molecular target: Mitogen-activated protein kinase kinase kinase 4 (Homo sapiens) (UniProt Q9Y6R4); conditions: Compound concentration 1000.0 nM
Sequence of Mitogen-activated protein kinase kinase kinase 4 (Homo sapiens) (Q9Y6R4 whole entry): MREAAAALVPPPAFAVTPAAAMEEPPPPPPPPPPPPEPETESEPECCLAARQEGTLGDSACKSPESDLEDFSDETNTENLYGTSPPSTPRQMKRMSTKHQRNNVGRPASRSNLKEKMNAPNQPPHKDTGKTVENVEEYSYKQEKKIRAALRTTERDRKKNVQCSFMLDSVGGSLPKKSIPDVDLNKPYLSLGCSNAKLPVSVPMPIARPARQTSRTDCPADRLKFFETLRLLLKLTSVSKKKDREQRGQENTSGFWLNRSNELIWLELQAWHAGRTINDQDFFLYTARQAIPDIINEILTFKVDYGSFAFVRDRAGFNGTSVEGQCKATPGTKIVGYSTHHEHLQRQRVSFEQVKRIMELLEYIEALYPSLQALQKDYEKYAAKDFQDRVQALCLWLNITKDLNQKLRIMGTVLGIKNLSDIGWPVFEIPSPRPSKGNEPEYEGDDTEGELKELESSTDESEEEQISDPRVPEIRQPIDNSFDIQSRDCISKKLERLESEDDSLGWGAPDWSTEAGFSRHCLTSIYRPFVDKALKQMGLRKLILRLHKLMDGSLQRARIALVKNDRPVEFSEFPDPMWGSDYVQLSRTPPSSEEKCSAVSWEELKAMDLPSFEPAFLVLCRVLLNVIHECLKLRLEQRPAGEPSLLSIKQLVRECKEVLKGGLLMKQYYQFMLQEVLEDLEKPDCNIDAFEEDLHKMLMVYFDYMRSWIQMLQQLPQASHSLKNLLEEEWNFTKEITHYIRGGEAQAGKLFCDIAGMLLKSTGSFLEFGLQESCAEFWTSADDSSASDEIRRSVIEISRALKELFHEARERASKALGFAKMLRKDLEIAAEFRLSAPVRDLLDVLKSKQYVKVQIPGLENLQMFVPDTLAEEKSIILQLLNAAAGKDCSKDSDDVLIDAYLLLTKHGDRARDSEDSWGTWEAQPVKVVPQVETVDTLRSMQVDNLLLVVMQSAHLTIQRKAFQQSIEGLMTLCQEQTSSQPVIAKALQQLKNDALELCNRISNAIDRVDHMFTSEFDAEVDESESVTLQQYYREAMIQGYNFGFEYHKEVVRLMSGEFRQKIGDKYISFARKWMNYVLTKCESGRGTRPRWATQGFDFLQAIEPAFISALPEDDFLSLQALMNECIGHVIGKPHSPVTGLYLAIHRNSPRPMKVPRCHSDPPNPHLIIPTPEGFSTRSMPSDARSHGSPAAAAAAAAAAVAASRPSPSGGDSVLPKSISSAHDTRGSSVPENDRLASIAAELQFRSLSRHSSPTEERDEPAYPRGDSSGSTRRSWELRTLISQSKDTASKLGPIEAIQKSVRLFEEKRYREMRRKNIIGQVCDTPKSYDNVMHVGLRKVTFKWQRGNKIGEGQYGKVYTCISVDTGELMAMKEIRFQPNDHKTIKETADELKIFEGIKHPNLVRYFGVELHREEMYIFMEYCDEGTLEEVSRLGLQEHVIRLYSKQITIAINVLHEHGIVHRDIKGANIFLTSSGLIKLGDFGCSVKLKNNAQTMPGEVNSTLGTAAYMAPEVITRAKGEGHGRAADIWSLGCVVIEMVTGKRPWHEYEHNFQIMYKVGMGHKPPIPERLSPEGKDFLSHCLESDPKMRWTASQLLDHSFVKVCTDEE

[39] = molecular target: Neprilysin (Homo sapiens) (UniProt P08473); assay: NEUTRALENDOP Eurofins-Panlabs selectivity data (BI); conditions: Compound concentration 10.0 uM
[40] = molecular target: cAMP-dependent protein kinase catalytic subunit PRKX (Homo sapiens) (UniProt P51817); conditions: Compound concentration 1000.0 nM
[41] = system: Phosphatidylinositol 4,5-bisphosphate 3-kinase catalytic subunit alpha isoform (Homo sapiens), P42336 [I800L]; conditions: Compound concentration 1000.0 nM
[42] = system: Mast/stem cell growth factor receptor Kit (Homo sapiens), P10721 [V559D,V654A]; conditions: Compound concentration 1000.0 nM
[43] = molecular target: Dual specificity mitogen-activated protein kinase kinase 7 (Homo sapiens) (UniProt O14733); conditions: Compound concentration 1000.0 nM
[44] = molecular target: Mitogen-activated protein kinase 11 (Homo sapiens) (UniProt Q15759); conditions: Compound concentration 1000.0 nM
Sequence of Mitogen-activated protein kinase 11 (Homo sapiens) (Q15759 whole entry): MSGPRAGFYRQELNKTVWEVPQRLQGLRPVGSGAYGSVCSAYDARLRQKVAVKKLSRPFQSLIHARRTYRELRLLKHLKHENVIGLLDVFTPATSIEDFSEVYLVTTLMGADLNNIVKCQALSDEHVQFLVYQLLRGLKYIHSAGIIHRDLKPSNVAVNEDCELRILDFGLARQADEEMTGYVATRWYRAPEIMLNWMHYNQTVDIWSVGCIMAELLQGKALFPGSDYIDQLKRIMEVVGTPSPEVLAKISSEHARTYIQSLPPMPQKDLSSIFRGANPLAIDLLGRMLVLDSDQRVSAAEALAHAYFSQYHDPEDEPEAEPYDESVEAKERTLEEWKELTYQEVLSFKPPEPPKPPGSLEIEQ

Measured: residual activity

CCOCCn1cc(C(=O)Nc2ccc(-n3nc(-c4cccnc4)cc3C(F)(F)F)cn2)ccc1=O [BI 1935]
inactive: [1] 57% | [2] 63% | [3] 87% | [4] 100% | [5] 80% | [6] 94% | [7] 98% | [8] 100% | [9] 89% | [10] 100% | [11] 80% | [12] 83% | [13] 99% | [14] 70% | [15] 71% | [16] 93% | [17] 87% | [18] 100% | [19] 100% | [20] 100% | [21] 100% | [22] 84% | [23] 89% | [24] 75% | [25] 97% | [26] 94% | [27] 100% | [28] 100% | [29] 100% | [30] 81% | [31] 100% | [32] 114% | [33] 100% | [34] 90% | [35] 97% | [36] 96% | [37] 100% | [38] 59% | [39] 104% | [40] 100% | [41] 71% | [42] 100% | [43] 85% | [44] 80%
